Each molecule was assayed against T1R1/T1R3 receptor (Felis catus, UniProt E3UMS2) (assay: cell-based). Settings: not given.
Description: (§1) HEK293 cells that stably express T1R3 and inducibly express T1R1 were exposed to nucleotide derivatives alone to activate the umami receptor. Activation of the T1R1/T1R3 receptor was detected by a change in intracellular calcium levels using a calcium sensitive fluorescent dye. Cells that express T1R3 but not T1R1 were used as a control. A FLIPR® Tetra or a FlexStation® 3 was used for data capture.
as §1, with “alone or in combination with one or more amino acids and/or one or more nucleotides” for “alone”, “dye and/or a luminescent reporter system.” for “dye.”
as §1, with “transmembrane compounds” for “nucleotide derivatives”, “alone or in combination with one or more amino acids and/or one or more nucleotides” for “alone”
In each experiment, serial dilutions of up to 10 mM of the transmembrane compound were added to the T1R1/T1R3-expressing cells.

Structure (SMILES)	EC50	Max resp % of IMP, +Alanine (20 mM)	Thres (mM), +Alanine (20 mM)
O=C(O)C1CCCCC1C(=O)Nc1cc(Cl)cc(Cl)c1 (centres unmarked)	0.49 ± 0.01 mM	–	–
CC(C)CC(NC(=O)c1ccccc1)C(N)=O (racemic)	–	125.5%	0.3 mM
O=C(O)C1CCCCC1C(=O)Nc1cc(Cl)cc(Cl)c1 (centres unmarked) [2-((3,5-dichlorophenyl)carbamoyl)cyclohexanecarboxylic acid]	–	163.5%	0.1 mM
CC(=O)Nc1ccc(C(=O)Nc2cc(-c3ccccc3)nn2CCO)cc1 [4-acetamido-N-(1-(2-hydroxyethyl)-3-phenyl-1H-pyrazol-5-yl)benzamide]	–	1.8%	–
CCCCc1nn(CC(=O)N2CCCC2)c(=O)n1Cc1ccccc1 [4-benzyl-3-butyl-1-(2-oxo-2-(pyrrolidin-1-yl)ethyl)-1H-1,2,4-triazol-5(4H)-one]	–	129.9%	0.3 mM
Nc1nc2c(ncn2[C@@H]2O[C@H](COP(=O)(O)OP(=O)(O)O)[C@@H](O)[C@H]2O)c(=S)[nH]1 [6-Thioguanosine-5′-O-diphosphate]	–	152.8%	0.03 mM
O=C(NCCCCNC(=O)c1cccnc1)c1cccnc1 [N,N′-(butane-1,4-diyl)dinicotinamide]	–	9.5%	1.0 mM
O=C(NCCc1ccccc1)c1ccccc1 [N-phenethylbenzamide]	–	20.4%	0.6 mM
O=C(NCCc1ccccc1)c1ccc2c(c1)OCO2 [N-phenethylbenzo[d][1,3]dioxole-5-carboxamide]	–	11.3%	1.0 mM
O=C(NCCc1ccccc1)c1cccnc1 [N-phenethylnicotinamide]	–	83.6%	0.1 mM
CCOC(=O)NC(=O)C(c1ccccc1)c1ccccc1 [Ro 01-6128, reference compound]	–	74.8%	0.3 mM

Same assay, conditions: EC50 (mM), +Alanine (20 mM) + IMP (0.2 mM), in the presence of 20 mM alanine and 0.2 mM IMP

Structure (SMILES)	EC50
CC(C)CC(NC(=O)c1ccccc1)C(N)=O (racemic)	0.91 mM
Nc1nc2c(ncn2[C@@H]2O[C@H](COP(=O)(O)OP(=O)(O)O)[C@@H](O)[C@H]2O)c(=S)[nH]1 [6-Thioguanosine-5′-O-diphosphate]	0.28 mM
O=C(NCCc1ccccc1)c1ccccc1 [N-phenethylbenzamide]	0.09 mM
O=C(NCCc1ccccc1)c1ccc2c(c1)OCO2 [N-phenethylbenzo[d][1,3]dioxole-5-carboxamide]	0.03 mM
O=C(NCCc1ccccc1)c1cccnc1 [N-phenethylnicotinamide]	0.22 mM

Same assay, conditions: EC50 (mM), +Alanine (20 mM), in the presence of 20 mM alanine

Structure (SMILES)	EC50
O=C(NCCc1ccccc1)c1ccccc1 [N-phenethylbenzamide]	> 1 mM

Same assay, conditions: EC50 (mM), +IMP (0.2 mM), in the presence of 0.2 mM IMP

Structure (SMILES)	EC50
CC(=O)Nc1ccc(C(=O)Nc2cc(-c3ccccc3)nn2CCO)cc1 [4-acetamido-N-(1-(2-hydroxyethyl)-3-phenyl-1H-pyrazol-5-yl)benzamide]	> 1 mM
O=C(NCCc1ccccc1)c1ccccc1 [N-phenethylbenzamide]	0.12 mM
O=C(NCCc1ccccc1)c1ccc2c(c1)OCO2 [N-phenethylbenzo[d][1,3]dioxole-5-carboxamide]	0.04 mM
O=C(NCCc1ccccc1)c1cccnc1 [N-phenethylnicotinamide]	0.35 mM

Same assay, conditions: T1R1/T1R3 EC50 +0.2 mM IMP, +0.2 mM IMP

Structure (SMILES)	EC50
O=C(O)C1CCCCC1C(=O)Nc1cc(Cl)cc(Cl)c1 (centres unmarked)	0.18 ± 0.01 mM
CC(=O)Nc1ccc(C(=O)Nc2cc(-c3ccccc3)nn2CCO)cc1 [4-acetamido-N-(1-(2-hydroxyethyl)-3-phenyl-1H-pyrazol-5-yl)benzamide]	> 0.1 mM
CCCCc1nn(CC(=O)N2CCCC2)c(=O)n1Cc1ccccc1 [4-benzyl-3-butyl-1-(2-oxo-2-(pyrrolidin-1-yl)ethyl)-1H-1,2,4-triazol-5(4H)-one]	> 0.3 mM
O=C(NCCc1ccccc1)c1ccccc1 [N-phenethylbenzamide]	0.12 ± 0.03 mM
O=C(NCCc1ccccc1)c1ccc2c(c1)OCO2 [N-phenethylbenzo[d][1,3]dioxole-5-carboxamide]	0.04 ± 0.01 mM
O=C(NCCc1ccccc1)c1cccnc1 [N-phenethylnicotinamide]	0.35 ± 0.1 mM

Same assay, conditions: T1R1/T1R3 EC50 +20 mM L-alanine + 0.2 mM IMP, +20 mM L-alanine + 0.2 mM IMP

Structure (SMILES)	EC50
CC(=O)Nc1ccc(C(=O)Nc2cc(-c3ccccc3)nn2CCO)cc1 [4-acetamido-N-(1-(2-hydroxyethyl)-3-phenyl-1H-pyrazol-5-yl)benzamide]	> 0.1 mM
CCCCc1nn(CC(=O)N2CCCC2)c(=O)n1Cc1ccccc1 [4-benzyl-3-butyl-1-(2-oxo-2-(pyrrolidin-1-yl)ethyl)-1H-1,2,4-triazol-5(4H)-one]	> 0.3 mM

Same assay, conditions: T1R1/T1R3 EC50 +20 mM L-alanine, +20 mM L-alanine

Structure (SMILES)	EC50
O=C(NCCc1ccccc1)c1ccccc1 [N-phenethylbenzamide]	> 1 mM
O=C(NCCc1ccccc1)c1ccc2c(c1)OCO2 [N-phenethylbenzo[d][1,3]dioxole-5-carboxamide]	> 1 mM

Same assay, conditions: alone in buffer; read-out: T1R1/T1R3 EC50 alone in buffer

Structure (SMILES)	EC50
O=C(O)C1CCCCC1C(=O)Nc1cc(Cl)cc(Cl)c1 (centres unmarked)	0.37 ± 0.05 mM
O=C(NCCc1ccccc1)c1ccccc1 [N-phenethylbenzamide]	0.33 ± 0.01 mM
O=C(NCCc1ccccc1)c1ccc2c(c1)OCO2 [N-phenethylbenzo[d][1,3]dioxole-5-carboxamide]	0.12 ± 0.07 mM
O=C(NCCc1ccccc1)c1cccnc1 [N-phenethylnicotinamide]	0.37 ± 0.02 mM

Same assay, conditions: compound alone in buffer; read-out: EC50 (mM), +buffer (alone)

Structure (SMILES)	EC50
O=C(NCCc1ccccc1)c1ccccc1 [N-phenethylbenzamide]	0.33 mM
O=C(NCCc1ccccc1)c1ccc2c(c1)OCO2 [N-phenethylbenzo[d][1,3]dioxole-5-carboxamide]	0.12 mM
O=C(NCCc1ccccc1)c1cccnc1 [N-phenethylnicotinamide]	0.37 mM

Same assay, conditions: in the presence of 0.2 mM IMP

Structure (SMILES)	Max resp ΔF/F, +IMP (0.2 mM)
Nc1nc2c(ncn2[C@@H]2O[C@H](COP(=O)(O)OP(=O)(O)O)[C@@H](O)[C@H]2O)c(=S)[nH]1 [6-Thioguanosine-5′-O-diphosphate]	0.0720 ΔF/F
O=C(NCCc1ccccc1)c1ccccc1 [N-phenethylbenzamide]	0.9800 ΔF/F

Same assay, conditions: in the presence of 0.2 mM IMP; relative to alanine

Structure (SMILES)	Max resp % of Ala, +IMP (0.2 mM)
CC(C)CC(NC(=O)c1ccccc1)C(N)=O (racemic)	204.5%
O=C(O)C1CCCCC1C(=O)Nc1cc(Cl)cc(Cl)c1 (centres unmarked) [2-((3,5-dichlorophenyl)carbamoyl)cyclohexanecarboxylic acid]	157.9%
CC(=O)Nc1ccc(C(=O)Nc2cc(-c3ccccc3)nn2CCO)cc1 [4-acetamido-N-(1-(2-hydroxyethyl)-3-phenyl-1H-pyrazol-5-yl)benzamide]	58.8%
CCCCc1nn(CC(=O)N2CCCC2)c(=O)n1Cc1ccccc1 [4-benzyl-3-butyl-1-(2-oxo-2-(pyrrolidin-1-yl)ethyl)-1H-1,2,4-triazol-5(4H)-one]	193.2%
Nc1nc2c(ncn2[C@@H]2O[C@H](COP(=O)(O)OP(=O)(O)O)[C@@H](O)[C@H]2O)c(=S)[nH]1 [6-Thioguanosine-5′-O-diphosphate]	9.3%
O=C(NCCCCNC(=O)c1cccnc1)c1cccnc1 [N,N′-(butane-1,4-diyl)dinicotinamide]	49.2%
O=C(NCCc1ccccc1)c1ccccc1 [N-phenethylbenzamide]	126.0%
O=C(NCCc1ccccc1)c1ccc2c(c1)OCO2 [N-phenethylbenzo[d][1,3]dioxole-5-carboxamide]	92.0%
O=C(NCCc1ccccc1)c1cccnc1 [N-phenethylnicotinamide]	149.5%
CCOC(=O)NC(=O)C(c1ccccc1)c1ccccc1 [Ro 01-6128, reference compound]	199.7%

Same assay, conditions: overall call: active or N/A (not active) on T1R1/T1R3

Structure (SMILES)	Activity
CCOC(=O)NC(=O)C(c1ccccc1)c1ccccc1 [Ro 01-6128, reference compound]	active

Same assay, conditions: threshold concentration in the presence of 0.2 mM IMP

Structure (SMILES)	Thres (mM), +IMP (0.2 mM)
CC(C)CC(NC(=O)c1ccccc1)C(N)=O (racemic)	0.1 mM
O=C(O)C1CCCCC1C(=O)Nc1cc(Cl)cc(Cl)c1 (centres unmarked) [2-((3,5-dichlorophenyl)carbamoyl)cyclohexanecarboxylic acid]	0.03 mM
CCCCc1nn(CC(=O)N2CCCC2)c(=O)n1Cc1ccccc1 [4-benzyl-3-butyl-1-(2-oxo-2-(pyrrolidin-1-yl)ethyl)-1H-1,2,4-triazol-5(4H)-one]	0.1 mM
O=C(NCCCCNC(=O)c1cccnc1)c1cccnc1 [N,N′-(butane-1,4-diyl)dinicotinamide]	0.1 mM
O=C(NCCc1ccccc1)c1ccccc1 [N-phenethylbenzamide]	0.01 mM
O=C(NCCc1ccccc1)c1ccc2c(c1)OCO2 [N-phenethylbenzo[d][1,3]dioxole-5-carboxamide]	0.01 mM
O=C(NCCc1ccccc1)c1cccnc1 [N-phenethylnicotinamide]	0.03 mM
CCOC(=O)NC(=O)C(c1ccccc1)c1ccccc1 [Ro 01-6128, reference compound]	0.01 mM
